From the PolyMetriX glass transition set come the findings set out here.

For the compound `*/C(=C(\C#N)c1ccc(C(=O)OC2CCN(*)CC2)cc1)c1ccc(OC)cc1` (repeat unit), the glass transition temperature is 183.00 °C.

The compound `*C(=O)Nc1ccc(Oc2cc(C(C)(C)C)c(Oc3ccc(NC(=O)c4ccc5c(c4)C(=O)N(c4ccc(Oc6ccc(C7(c8ccc(Oc9ccc(N%10C(=O)c%11ccc(*)cc%11C%10=O)cc9)cc8)CC8CC7C7CCCC87)cc6)cc4)C5=O)cc3)cc2C(C)(C)C)cc1` (repeat unit) registered a glass transition temperature of 290.00 °C.

Compound `*C(=O)Nc1ccc(Oc2ccc(-c3ccc(Oc4ccc(NC(=O)c5ccc6c(c5)C(=O)N(c5ccc(Oc7ccc(C8(c9ccc(Oc%10ccc(N%11C(=O)c%12ccc(*)cc%12C%11=O)cc%10)cc9)CC9CC8C8CCCC98)cc7)cc5)C6=O)cc4)cc3C)c(C)c2)cc1` (repeat unit) had a glass transition temperature of 265.00 °C.

In turn, `*C(=O)Oc1ccc(OC(=O)c2ccc3c(c2)C(=O)N(c2ccc(Oc4ccc(N5C(=O)c6ccc(*)cc6C5=O)cc4)cc2)C3=O)c(-c2ccccc2)c1` (repeat unit) displayed a glass transition temperature of 212.00 °C.

As to `*C(=O)Oc1ccc(OC(=O)c2ccc3c(c2)C(=O)N(c2ccc(Oc4ccc(N5C(=O)c6ccc(*)cc6C5=O)cc4)cc2)C3=O)cc1` (repeat unit), the glass transition temperature stood at 270.00 °C.

`*C(=O)Oc1ccc(OC(=O)c2ccc3c(c2)C(=O)N(c2ccc(Oc4ccc(Oc5ccc(N6C(=O)c7ccc(*)cc7C6=O)cc5)cc4)cc2)C3=O)cc1` (repeat unit): the glass transition temperature worked out at 230.00 °C.

Regarding `*C(=O)Oc1ccc(OCCCCCCCCCCCCOc2ccc(OC(=O)c3ccc4c(c3)C(=O)N(c3ccc(Cc5ccc(N6C(=O)c7ccc(*)cc7C6=O)cc5)cc3)C4=O)cc2)cc1` (repeat unit), the glass transition temperature was found to be 125.00 °C.

Consider `*CCOCCOCCN1C(=O)c2ccc(C(=O)Oc3ccc(OC(=O)c4ccc5c(c4)C(=O)N(*)C5=O)c(-c4ccccc4)c3)cc2C1=O` (repeat unit), for which the glass transition temperature stood at 105.00 °C.

In turn, `*OC(=O)Oc1ccc(C(=O)Oc2ccc(OC(=O)OC3COC4C(*)COC34)cc2)cc1` (repeat unit) gave a glass transition temperature of 115.00 °C.

`*OC(=O)Oc1ccc(S(=O)(=O)c2ccc(OC(=O)OC3CC4CC(*)CC(C3)O4)cc2)cc1` (repeat unit) displayed a glass transition temperature of 184.00 °C.

In turn, `*OP(=O)(Oc1ccc(Br)cc1)Oc1ccc(S(=O)(=O)c2ccc(*)cc2)cc1` (repeat unit) gave a glass transition temperature of 89.00 °C.

With `*OP(=O)(Oc1ccc(OC)cc1)Oc1ccc(S(=O)(=O)c2ccc(*)cc2)cc1` (repeat unit), the glass transition temperature was determined as 81.00 °C.

In turn, `*OP(=O)(Oc1ccc(S(=O)(=O)c2ccc(*)cc2)cc1)OC1CCCCC1` (repeat unit) came in with a glass transition temperature of 120.00 °C.

Consider `*OP(=O)(Oc1ccc([N+](=O)[O-])cc1)Oc1ccc(S(=O)(=O)c2ccc(*)cc2)cc1` (repeat unit), for which the glass transition temperature came out at 114.00 °C.

Compound `*O[Si](C)(Oc1ccc(*)cc1)c1ccccc1` (repeat unit) displayed a glass transition temperature of 95.00 °C.

`*Oc1ccc(-c2ccc(Oc3ccc(Oc4cc(Oc5ccc(*)cc5)ccc4CCCCCC)cc3)c3ccccc23)c2ccccc12` (repeat unit) had a glass transition temperature of 150.00 °C.

In the case of `*Oc1ccc(-c2ccc(Oc3ccc(Oc4ccc(Oc5ccc(*)cc5)cc4)cc3)c3ccccc23)c2ccccc12` (repeat unit), the glass transition temperature was 147.00 °C.

For `*Oc1ccc(-c2ccc(Oc3ccc(Oc4cccc(Oc5ccc(*)cc5)c4C)cc3)c3ccccc23)c2ccccc12` (repeat unit), the glass transition temperature turned out to be 156.00 °C.

Regarding `*Oc1ccc(C(C)(C)C)cc1Oc1ccc(S(=O)(=O)c2ccc(*)cc2)cc1` (repeat unit), the glass transition temperature came to 180.50 °C.

In the case of `*Oc1ccc(N[Se]Nc2ccc(*)cc2)cc1` (repeat unit), the glass transition temperature stood at 55.00 °C.

Consider `*Oc1ccc(OC(=O)c2cc(OCCCCOCC3CCCN3c3ccc([N+](=O)[O-])cc3)c(C(*)=O)cc2OCCCCOCC2CCCN2c2ccc([N+](=O)[O-])cc2)cc1` (repeat unit), for which the glass transition temperature came to 68.00 °C.

`*Oc1ccc(OC(=O)c2ccc(-c3ccc(C(*)=O)cc3)cc2-c2ccccc2)cc1` (repeat unit): the glass transition temperature was found to be 140.00 °C.

Take `*Oc1ccc(OC(=O)c2ccc(C(*)=O)cc2)cc1-c1cccc(C(F)(F)F)c1` (repeat unit): the glass transition temperature came out at 155.80 °C.

In the case of `*Oc1ccc(OC(=O)c2ccc(C(*)=O)cc2)cc1C(F)(F)F` (repeat unit), the glass transition temperature was 159.30 °C.

For the compound `*Oc1ccc(OC(=O)c2ccc(C(*)=O)cc2)cc1C1CC2CCC1C2` (repeat unit), the glass transition temperature was found to be 267.00 °C.

`*Oc1ccc(OC(=O)c2ccc(C(*)=O)cc2Oc2ccc(Oc3ccccc3)cc2)cc1` (repeat unit) returned a glass transition temperature of 83.00 °C.

With `*Oc1ccc(OC(=O)c2ccc(C(*)=O)cc2Oc2ccc3ccccc3c2)cc1` (repeat unit), the glass transition temperature was 102.00 °C.

`*Oc1ccc(OC(=O)c2ccc(C(*)=O)cc2Oc2ccccc2)cc1` (repeat unit) had a glass transition temperature of 105.00 °C.

For `*Oc1ccc(OC(=O)c2ccc(C(*)=O)cc2Sc2ccccc2)cc1` (repeat unit), the glass transition temperature turned out to be 181.00 °C.

`*Oc1ccc(OC(=O)c2ccc(C(*)=O)cc2Sc2ccccc2)cc1-c1ccccc1` (repeat unit): the glass transition temperature was 130.00 °C.

The compound `*Oc1ccc(OC(=O)c2ccc(OCCCCCCCCCCCCOc3ccc(C(*)=O)cc3)cc2)cc1S(=O)(=O)c1ccccc1` (repeat unit) registered a glass transition temperature of 82.70 °C.

The compound `*Oc1ccc(OC(=O)c2ccc(OCCCCCCOc3ccc(C(*)=O)cc3)cc2)cc1S(=O)(=O)c1ccccc1` (repeat unit) displayed a glass transition temperature of 105.50 °C.

Take `*Oc1ccc(OC(=O)c2cccc(C(*)=O)c2)cc1` (repeat unit): the glass transition temperature came out at 186.00 °C.

`*Oc1ccc(Oc2ccc(/C=N/CCCCCC/N=C/c3ccc(*)cc3)cc2)cc1` (repeat unit) yielded a glass transition temperature of 111.00 °C.

As to `*Oc1ccc(S(=O)(=O)c2ccc(Oc3c(C)cc(C(C)(C)c4cc(C)c(*)c(C)c4Br)c(Br)c3C)cc2)cc1` (repeat unit), the glass transition temperature is 275.40 °C.

`*Oc1ccc(S(=O)(=O)c2ccc(Oc3cc(C)c(C(c4cc(C(C)C)c(*)cc4C)c4ccccc4C(=O)O)cc3C(C)C)cc2)cc1` (repeat unit): the glass transition temperature was determined as 240.00 °C.

In the case of `*Oc1ccc(S(=O)(=O)c2ccc(Oc3ccc4c(=O)n5c6cc(Oc7ccc8c(c7)nc7c9ccc(*)c%10cccc(c(=O)n87)c%109)ccc6nc5c5cccc3c45)cc2)cc1` (repeat unit), the glass transition temperature was found to be 374.00 °C.

With `*Oc1ccc(S(=O)(=O)c2ccc3cc(S(=O)(=O)c4ccc(Oc5c(C)cc(-c6cc(C)c(*)c(C)c6C)c(C)c5C)cc4)ccc3c2)cc1` (repeat unit), the glass transition temperature amounted to 300.00 °C.

In the case of `*Oc1ccc2cc(Oc3ccc(C(=O)c4ccc(*)cc4)cc3)ccc2c1` (repeat unit), the glass transition temperature came to 247.00 °C.

Turning to `*Oc1cccc(Oc2ccc(C(=O)c3ccc(*)cc3)cc2)c1` (repeat unit), the glass transition temperature was 125.00 °C.

Regarding `*Oc1cccc(Oc2ccc(C(=O)c3ccc(P(=O)(c4ccccc4)c4ccc(C(=O)c5ccc(*)cc5)cc4)cc3)cc2)c1` (repeat unit), the glass transition temperature amounted to 201.00 °C.

As to `*c1cc(C(C)C)c(Oc2ccc(S(=O)(=O)c3ccc(Oc4cc(C)c(C5(*)OC(=O)c6ccccc65)cc4C(C)C)cc3)cc2)cc1C` (repeat unit), the glass transition temperature stood at 230.00 °C.

`*c1ccc(C(=O)Oc2ccc(OC(=O)c3ccc(N4C(=O)CC(SCCOCCSC5CC(=O)N(*)C5=O)C4=O)cc3)cc2)cc1` (repeat unit) registered a glass transition temperature of 166.00 °C.

In turn, `*c1ccc(N2C(=O)c3ccc(Oc4ccc(Oc5ccc(P(=O)(c6ccccc6)c6ccc(Oc7ccc(Oc8ccc9c(c8)C(=O)N(*)C9=O)cc7)cc6)cc5)cc4)cc3C2=O)cc1` (repeat unit) showed a glass transition temperature of 220.00 °C.

In turn, `*c1ccc(Oc2ccc(-c3ccc(Oc4ccc(N5C(=O)c6ccc(Oc7ccc(Oc8ccc9c(c8)C(=O)N(*)C9=O)cc7)cc6C5=O)cc4)cc3)cc2)cc1` (repeat unit) gave a glass transition temperature of 230.00 °C.

Compound `*c1ccc(Oc2ccc(N3C(=O)c4ccc(Oc5ccc(S(=O)(=O)c6ccc(Oc7ccc8c(c7)C(=O)N(*)C8=O)cc6)cc5)cc4C3=O)cc2)cc1` (repeat unit) displayed a glass transition temperature of 260.00 °C.

On to `*c1ccc(Oc2ccc(N3C(=O)c4cccc(Oc5ccc(Oc6ccc(Oc7cccc8c7C(=O)N(*)C8=O)cc6)cc5)c4C3=O)cc2)cc1` (repeat unit), for which the glass transition temperature stood at 239.00 °C.

Compound `*c1ccc(Oc2ccc(Oc3ccc(N4C(=O)c5cccc(Oc6c(C)cc(Cc7cc(C)c(Oc8cccc9c8C(=O)N(*)C9=O)c(C)c7)cc6C)c5C4=O)c(C)c3)cc2)cc1C` (repeat unit) yielded a glass transition temperature of 238.00 °C.

As for `*c1ccc(Oc2ccc(Oc3ccc(N4C(=O)c5cccc(Oc6ccc(C(C)(C)c7ccc(Oc8cccc9c8C(=O)N(*)C9=O)cc7)cc6)c5C4=O)c(C)c3)cc2)cc1C` (repeat unit), the glass transition temperature was found to be 222.00 °C.

Regarding `*c1ccc(Oc2ccc(Sc3ccc(Oc4ccc(N5C(=O)c6ccc(Oc7ccc(Oc8ccc9c(c8)C(=O)N(*)C9=O)cc7)cc6C5=O)cc4)cc3)cc2)cc1` (repeat unit), the glass transition temperature is 201.00 °C.

`*c1ccc(Oc2cccc(Oc3ccc(N4C(=O)c5ccc(Oc6ccc(S(=O)(=O)c7ccc(Oc8ccc9c(c8)C(=O)N(*)C9=O)cc7)cc6)cc5C4=O)cc3)c2)cc1` (repeat unit): the glass transition temperature turned out to be 219.00 °C.

For the compound `*c1ccc(Oc2cccc(Oc3ccc(N4C(=O)c5cccc(Oc6ccc(C(=O)c7ccc(Oc8cccc9c8C(=O)N(*)C9=O)cc7)cc6)c5C4=O)cc3)c2)cc1` (repeat unit), the glass transition temperature is 216.00 °C.

As to `*c1cccc(N2C(=O)c3ccc(Oc4ccc(Oc5ccc6c(c5)C(=O)N(*)C6=O)cc4)cc3C2=O)c1` (repeat unit), the glass transition temperature was found to be 255.00 °C.

The compound `*c1cccc(N2C(=O)c3cccc(Oc4ccc(C(=O)c5ccc(Oc6cccc7c6C(=O)N(*)C7=O)cc5)cc4)c3C2=O)c1` (repeat unit) displayed a glass transition temperature of 248.00 °C.
